Source: patent US6417183B1, “1,4-diazacycloheptane derivatives” (Astrazenela UK Limited, priority 1997, dated 2002)
Structures can show the parent of a compound that is named as a salt.

Assays:
[1] = test system: L-type voltage sensitive calcium channels (3H-D888 binding site); test: 3H-D-888 binding to rat brain cortical membranes; details: displacement of 3H-D888, rat cortical membranes, 60 minutes at 25° C.
Method: ^3H-D-888 Binding to Rat Brain Cortical Membranes
The method of ^3H-D-888 binding was a modification of Reynolds, I. J., Snowman, A. M. and Synder, S. H. (−)-[^3H] Desmethoxyverapamil labels multiple calcium channel modular receptors in brain and skeletal muscle membranes: differentiation by temperature and dihydropyridines. J. Pharmacol. Exp. Ther. 237: no.3, 731-738, 1986.
The assay tubes contained the following: assay buffer: 50 mM Hepes, 0.2% BSA, pH 7.4 radioligand: 1 πM ^3H-D888 (Amersham) rat cortical membranes: 6 mg/ml original wet weight
This mixture was incubated for 60 minutes at 25° C. The assay was terminated by filtering with a Brandel Cell Harvester over Whatman GF/C filters that had been soaked for at least 120 minutes in 0.3% polyethylenamine (PEI) and washed three times with 5 mL of wash buffer containing 20 mM Hepes, 20 mM MgCl2, pH 7.4. Specific binding was measured with 10 μM methoxyverapamil (D-600). This assay was used to determine in vitro selectivity of compounds vs. L-type voltage sensitive calcium channels, i.e high affinity for the ^3H-D888 binding site would show a lack of selectivity. For example the compound of Example 4 gave a value of about 19.000 nM in this test.
Rat brain cortical membrane preparation: Male Sprague-Dawley Rats were sacrificed by decapitation and the brains were quickly excised. […]

[2] = target: T1, [3H]-emopamil binding site (Cavia porcellus, UniProt Q60490); test: 3H-Emopamil binding to guinea pig liver membranes; details: displacement of 0.96 nM (-)-3H-emopamil, 60 minutes at 37° C.
T1 construct: from tissue; host or cells: guinea pig liver membranes
T1 sequence (Q60490 1-229): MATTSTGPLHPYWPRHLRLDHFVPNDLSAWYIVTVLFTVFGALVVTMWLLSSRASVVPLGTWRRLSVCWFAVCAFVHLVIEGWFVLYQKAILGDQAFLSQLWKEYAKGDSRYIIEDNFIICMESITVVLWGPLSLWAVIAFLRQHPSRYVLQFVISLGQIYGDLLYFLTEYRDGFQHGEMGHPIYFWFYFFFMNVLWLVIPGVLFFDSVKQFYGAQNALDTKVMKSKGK
Method: ^3H-Emopamil Binding to Guinea Pig Liver Membranes
The method of (−)-^3H-emopamil binding was a modification of Zech, C., Staudinger R., Mühlbacher, J. and Glossmann, H. Novel sites for phenylalkylamines: characterization of a sodium-sensitive drug receptor with (−)-^3H-emopamil. Eur. J. Pharm. 208: 119-130, 1991.
The reaction mixture contained:
Assay buffer: 10 mM Tris-HCl, 0.1 mM phenylmethylsulfonyl fluoride (PMSF), 0.2% bovine serum albumin (BSA), pH 7.4 at 4° C.
Radioligand: 0.96 nM (−)-^3H-emopamil (Amersham).
Guinea pig liver membranes: 40 mg/mL original wet weight.
This mixture was incubated for 60 minutes at 37° C. The incubation was terminated by filtering with a Brandel Cell Harvester over Whatman GF/C filters that had been soaked for at least 120 minutes in 0.3% polyethylenimine (PEI) and washed three times with 5 mL of wash buffer containing 10 mM Tris-HCl, 10 mM MgCl2, 0.2% BSA, pH 7.4 at 25° C. Specific binding was defined with 10 μM emopamil. […]
Guinea-pig liver membrane preparation: Male guinea pigs were sacrificed by CO2 asphyxiation with dry ice. The livers were quickly excised and weighed and rinsed in membrane preparation buffer containing 10 mM Hepes, 1 mM Tris base-EDTA, 250 mM […] Teflon-glass homogenizer with three strokes on ice. […]

| SMILES | melting point | value in 3H-D-888 binding test (in vitro selectivity vs. L-type VSCC) [1] | IC50 [2] |
| --- | --- | --- | --- |
| COc1cccc2c1CCCC2N1CCCN(C)CC1 (centres unmarked) (as salt: hydrochloride) [Example 7, 1-Methyl-4-(5-methoxy-1,2,3,4-tetrahydro-1-naphthalenyl)homopiperazine] | 172.2 to 176.6 °C | – | – |
| CC(C)N1CCCN(C2CCCc3ccccc32)CC1 (centres unmarked) (as salt: hydrochloride) [Example 13, 1-Isopropyl-4-(1,2,3,4-tetrahydro-1-naphthalenyl)homopiperazine] | 149.5 to 151 °C | – | – |
| CN1CCCN(C2CCCc3ccccc32)CC1 (centres unmarked) (as salt: maleate) [Example 1, 1-Methyl-4-(1,2,3,4-tetrahydro-1-naphthalenyl)homopiperazine] | 125.4 to 126.3 °C | – | – |
| c1ccc2c(c1)CCCC2N1CCCNCC1 (centres unmarked) (as salt: salt) [Example 2, N-(1,2,3,4-Tetrahydro-1-naphthalenyl)homopiperazine] | 107 to 109.4 °C | – | – |
| CN1CCCN(C2CCCc3cc(F)ccc32)CC1 (centres unmarked) (as salt: salt) [Example 16, 1-Methyl-4-(6-fluoro-1,2,3,4-tetrahydro-1-naphthalenyl)homopiperazine] | 78.8 to 79.5 °C | – | – |
| CCc1ccc2c(c1)CCCC2N1CCCN(C)CC1 (centres unmarked) (as salt: salt) [Example 25, 1-Methyl-4-(6-ethyl-1,2,3,4-tetrahydro-1-naphthalenyl)homopiperazine] | 131.5 to 132.8 °C | – | – |
| CN1CCCN([C@H]2CCCc3ccccc32)CC1 [Example 4, S(+) 1-Methyl-4-(1,2,3,4-tetrahydro-1-naphthalenyl)homopiperazine] | – | about 19.000 nM | 17 nM |
